Columns and labels:
MOVAS cells [1] = test: MOVAS cell calcification assay (Alizarin red); type: cell-based, mouse; settings: Mus musculus, MOVAS, read-out: Calcification assay Max calcification inhibition (%) at the indicated dose of compound
Experimental: A) Alizarin red staining of MOVAS cells stimulated with sCPP for 24 h in DMEM+10% FBS and treated or not with 50 uM of compounds. […] Statistical analysis was determined using one-way ANOVA with ***p<0.001. C) Percentage of cytotoxicity (LDH %) in MOVAS treated or not with compounds for 24 h. D) MOVAS cells were seeded onto half-area 96-well plate and incubated overnight. Then C5 or C6 at 50 uM or vehicle (DMSO), L-cysteine at 10 mM, PLP at 5 uM and the H2S sensitive fluorescent probe AzMC at 10 μM were added. The fluorescence was immediately measured in kinetic mode for 2 h at 37° C. with SpectraMax M5 reader, with excitation and emission wavelengths of 365 nm and 450 nm, respectively.
A) Alizarin red staining of Movas cells stimulated with sCPP for 24 h in DMEM+10% FBS and treated or not with 50 uM of Z20. […] C) Percentage of cytotoxicity (LDH %) in murine chondrocytes treated or not with Z20 for 24 h. Statistical analysis was determined using one-way ANOVA with ***p<0.001.
Alizarin red staining of MOVAS cells stimulated with sCPP for 24 h in DMEM+10% FBS and treated or not with different concentrations of compounds (A: C6) and (B: Z20). The graphs show Alizarin red absorbance at 570-630 nm. Statistical analysis was determined using one-way ANOVA with *p<0.05, **p<0.01, ***p<0.001.
CPP were generated by preparing 20 ml DMEM containing 10% FBS, 1 mmol/L CaCl2, 3.5 mmol/L inorganic phosphate (1.36 mmol/L NaH2PO4 and 2.14 mmol/L Na2HPO4) (Aghagolzadeh et al. Atherosclerosis, 2016). After 7 days incubation at 37° C., the suspension was centrifuged at 25000 g for 2 h at 4° C., and the pellet containing CPP was resuspended in 1 ml DMEM and stored at −20° C. until further use.
Mouse vascular smooth muscle cell line (MOVAS) cells were cultured according to the manufacturer's guidelines in DMEM culture medium supplemented with 10% FBS. Cells were cultured at 37° C. in a humidified atmosphere with 5% CO2. All cell culture experiments in 96-well plates were performed in triplicates and were repeated independently two times.
For calcification experiments, cells were seeded in 96-well plates at a density of 50,000 cells/well and left to attach for 18 h. Calcification of cell monolayers was induced by CPP (equivalent to 50 μg Ca/mL) for 24 h at 37° C., 5% CO2 in presence of various concentrations of compounds (all in final 0.1% DMSO), or of 0.1% DMSO as a control, to reach a final volume of 200 μl/well. Calcium deposition was assessed by 0.5% w/v Alizarin Red staining (pH 4.2). Briefly, after PBS washing, methanol fixation for 10 min at 4° C., and milli-Q water washing, cells were incubated for 60 min with 200 μL Alizarin Red solution and then washed four times with milli-Q water. Quantification was performed after crystal dissolution with cetylpyridinium chloride (10%) for 18 h. The absorbance was measured at 570 and 630 nm using the Spectramax M5e reader (Molecular Devices). The background (alizarin red staining obtained with cells in the absence of CPP) was subtracted from all values.

MOVAS cells [2] = test: Cytotoxicity assay, LDH release; type: cell-based, mouse
Experimental: A) Alizarin red staining of MOVAS cells stimulated with CPP for 24 h in DMEM+10% FBS in presence of different concentrations of compound 22401. […] The background (Alizarin red staining obtained with cells in the absence of CPP) was subtracted from all values. B) Percentage of cytotoxicity, as measured by LDH release, in MOVAS cells in the same conditions as A). Statistical analysis was determined using one-way ANOVA with *p<0.05, **p<0.01, ***p<0.001.
Measurement of lactate dehydrogenase (LDH) as a means of cytotoxicity assay was performed with using CytoTox-ONE Homogeneous Membrane Integrity Assay (Promega) according to the manufacturer's instructions. Values were calculated as percentage of cytotoxicity using the following formula: [(value in sample)−(background)]/[(value in Triton X-100-treated sample)−(background)]×100.

recombinant human CSE = recombinant human CSE (Homo sapiens, UniProt P32929); test: CSE activity (AzMC probe assay), H2S production by recombinant human CSE; type: biochemical; settings: for CSE activity (AZMC probe assay) % of activation: (RFU compound max - RFU compound 0/RFU CSE 2 ug - RFU compound 0)*100; for EC50: EC50 calculated by the four-parameter logistic model
Experimental: The activity of recombinant human CSE (rCSE) was tested in the presence of C5, compound 8 (50 uM), Z20 compound 13 (50 uM) or vehicle (DMSO). Briefly, compounds were added in reaction buffer (50 mM Tris-HCl, pH 8) containing 2 μg of rCSE, 10 mM CSE substrate L-cysteine, 5 uM pyridoxal 5′-phosphate (PLP). After addition of 10 μM of the H2S sensitive fluorescent probe 7-azido-4-methylcoumarin (AzMC) in a total volume of 100 μl, fluorescence was immediately measured in kinetic mode for 2 h at 37° C. with SpectraMax M5 reader, with excitation and emission wavelengths of 365 nm and 450 nm, respectively. Statistical analysis was determined using simple linear regression with p<0.0001 for C5 vs. vehicle and p<0.0002 for Z20 vs. vehicle.
Recombinant human CSE (1 μg/well) was incubated with various concentrations of compounds (all in final 0.1% DMSO), or with 0.1% DMSO as a control, in 10 mM sodium phosphate buffer pH 8.2. Next, 10 mM L-cysteine and 1 mM PLP and 10 μM of the probe AzMC were then added to reach 100 μL total volume. Fluorescence was measured for 3 h at 37° C. with excitation and emission wavelengths of 365 nm and 450 nm, respectively, in a 96-well half area black plate with transparent bottom.
Dose-response curve of each compound was performed, using triplicate wells for each tested doses. The background (10 mM sodium phosphate buffer with L-cysteine, PLP and AzMC) was subtracted from all values. Each mean value was converted to percent activity (0% defined as the smallest mean in each data set, 100% defined as the highest mean in each data set). The data were normalized using the four parameter logistic model (4PL) equation to calculate EC50 using GraphPad Prism.

Sequence of recombinant human CSE (P32929 whole entry): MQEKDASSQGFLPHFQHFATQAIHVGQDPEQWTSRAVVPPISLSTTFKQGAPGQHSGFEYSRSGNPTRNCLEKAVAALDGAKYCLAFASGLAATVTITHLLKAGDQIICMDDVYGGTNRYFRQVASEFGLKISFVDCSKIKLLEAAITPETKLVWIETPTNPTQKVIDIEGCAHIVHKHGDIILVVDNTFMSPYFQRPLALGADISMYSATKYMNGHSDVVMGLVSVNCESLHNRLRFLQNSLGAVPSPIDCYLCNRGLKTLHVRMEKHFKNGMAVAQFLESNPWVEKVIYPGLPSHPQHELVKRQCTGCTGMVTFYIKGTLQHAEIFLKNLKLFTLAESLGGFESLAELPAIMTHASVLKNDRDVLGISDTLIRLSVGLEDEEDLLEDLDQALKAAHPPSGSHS

| Structure (SMILES) | CSE activity (AZMC probe assay) % of activation (recombinant human CSE) | EC50 (recombinant human CSE) | Cytotoxicity assay LDH release (% of cytotoxicity) (MOVAS cells [2]; no dose given) | further results |
| --- | --- | --- | --- | --- |
| Cn1cc(Nc2ncccn2)cn1 [Compound 26, N-(1-methyl-1H-pyrazol-4-yl)pyrimidin-2-amine] | 57% | 0.0385 µM | 20% |  |
| CCn1cnc2c(Nc3cnn(CCOC)c3)ncnc21 [Compound 47, 9-ethyl-N-(1-(2-methoxyethyl)-1H-pyrazol-4-yl)-9H-purin-6-amine] | 106% | 0.0389 µM |  | inhibition at 20 µM (MOVAS cells [1]): 37%; Cytotoxicity assay LDH release (% of cytotoxicity) (MOVAS cells [2]; at 20 uM): 25% at |
| CCCn1cc(Nc2ncnc3c2ncn3CC)cn1 [Compound 33, 9-ethyl-N-(1-propyl-1H-pyrazol-4-yl)-9H-purin-6-amine] | 59% | 0.0197 µM | 20% |  |
| CCn1cnc2c(Nc3cnn(Cc4ccccn4)c3)ncnc21 [Compound 34, 9-ethyl-N-(1-(pyridin-2-ylmethyl)-1H-pyrazol-4-yl)-9H-purin-6-amine] | 35% | 0.0317 µM | 20% |  |
| c1cnc(Nc2cnn(CC3CCCCC3)c2)nc1 [Compound 31, N-(1-(cyclohexylmethyl)-1H-pyrazol-4-yl)pyrimidin-2-amine] | 61% | 0.0674 µM | 15% |  |
| CCn1cnc2c(Nc3cnn(CC4CCCCC4)c3)ncnc21 [Compound 30, N-(1-(cyclohexylmethyl)-1H-pyrazol-4-yl)-9-ethyl-9H-purin-6-amine] | 39% | 0.0318 µM |  | inhibition at 20 µM (MOVAS cells [1]): 80%; Cytotoxicity assay LDH release (% of cytotoxicity) (MOVAS cells [2]; at 20 uM): 5% at |
| CCn1cnc2c(Nc3cnn(C)c3)ncnc21 [Compound 25, 9-ethyl-N-(1-methyl-1H-pyrazol-4-yl)-9H-purin-6-amine] | 56% | 0.026 µM | 20% |  |

Continued, in another order:

| CSE activity (AZMC probe assay) % of activation (recombinant human CSE) | EC50 (recombinant human CSE) | Structure (SMILES) | Cytotoxicity assay LDH release (% of cytotoxicity) (MOVAS cells [2]; no dose given) | further results |
| --- | --- | --- | --- | --- |
| 28% | 0.0418 µM | CCn1cnc2c(Nc3cnn(CC4CCCO4)c3)ncnc21 (centres unmarked) [Compound 19, 9-ethyl-N-(1-((tetrahydrofuran-2-yl)methyl)-1H-pyrazol-4-yl)-9H-purin-6-amine] |  | inhibition at 50 µM (MOVAS cells [1]; at 50 uM): 48%; Cytotoxicity assay LDH release (% of cytotoxicity) (MOVAS cells [2]; at 50 uM): 15% at |
| 46% | 0.021 µM | c1cc(Nc2cnn(CC3CCCO3)c2)ncn1 (centres unmarked) [Compound 20, N-(1-((tetrahydrofuran-2-yl)methyl)-1H-pyrazol-4-yl)pyrimidin-4-amine] |  | inhibition at 20 µM (MOVAS cells [1]): 23%; Cytotoxicity assay LDH release (% of cytotoxicity) (MOVAS cells [2]; at 20 uM): 16% at |
| 62% | 0.0158 µM | O=C(Nc1cnn(CC2CCCO2)c1)c1ccccc1 (centres unmarked) [Compound 36, N-(1-((tetrahydrofuran-2-yl)methyl)-1H-pyrazol-4-yl)benzamide] |  | inhibition at 0.07 µM (MOVAS cells [1]; at 0.07 uM): 42%; Cytotoxicity assay LDH release (% of cytotoxicity) (MOVAS cells [2]; at 0.07 uM): 12% at |
| 33% | 0.137 µM | O=C(Nc1cnn(CC2CCCO2)c1)c1cccc(F)c1 (centres unmarked) [Compound 39, 3-fluoro-N-(1-((tetrahydrofuran-2-yl)methyl)-1H-pyrazol-4-yl)benzamide] |  | inhibition at 20 µM (MOVAS cells [1]): 30%; Cytotoxicity assay LDH release (% of cytotoxicity) (MOVAS cells [2]; at 20 uM): 8% at |
| 59% | 0.0396 µM | N#Cc1cccc(C(=O)Nc2cnn(CC3CCCO3)c2)c1 (centres unmarked) [Compound 45, 3-cyano-N-(1-((tetrahydrofuran-2-yl)methyl)-1H-pyrazol-4-yl)benzamide] |  | inhibition at 5 µM (MOVAS cells [1]; at 5 uM): 57%; Cytotoxicity assay LDH release (% of cytotoxicity) (MOVAS cells [2]; at 5 uM): 12% at |
| 73% | 0.029 µM | O=C(Nc1cnn(CC2CCCO2)c1)c1cccc2[nH]ccc12 (centres unmarked) [Compound 44, N-(1-((tetrahydrofuran-2-yl)methyl)-1H-pyrazol-4-yl)-1H-indole-4-carboxamide] |  | inhibition at 0.3 µM (MOVAS cells [1]): 37%; Cytotoxicity assay LDH release (% of cytotoxicity) (MOVAS cells [2]; at 0.3 uM): 12% at |
| 109% | 0.043 µM | O=[N+]([O-])c1ccc(Nc2cnn(CC3CCCO3)c2)cc1 (centres unmarked) [Compound 35, N-(4-nitrophenyl)-1-((tetrahydrofuran-2-yl)methyl)-1H-pyrazol-4-amine] |  | inhibition at 0.3 µM (MOVAS cells [1]): 23%; Cytotoxicity assay LDH release (% of cytotoxicity) (MOVAS cells [2]; at 0.3 uM): 4% at |
| 76% | 0.0352 µM | c1cnc(Nc2cnn(CC3CCCO3)c2)nc1 (centres unmarked) [Compound 32] |  | inhibition at 2 µM (MOVAS cells [1]; at 2 uM): 36%; Cytotoxicity assay LDH release (% of cytotoxicity) (MOVAS cells [2]; at 2 uM): 15% at |
| 65% | 0.0044 µM | O=C(Nc1cnn(CC2CCCO2)c1)c1ccc2ccccc2c1 (centres unmarked) [Compound 40, N-(1-((tetrahydrofuran-2-yl)methyl)-1H-pyrazol-4-yl)-2-naphthamide] |  | inhibition at 0.3 µM (MOVAS cells [1]): 56%; Cytotoxicity assay LDH release (% of cytotoxicity) (MOVAS cells [2]; at 0.3 uM): 10% at |
